Experimental data reported in patent US6204293A, “Inhibitors of protein isoprenyl transferases” (University of Pittsburgh, priority 1998, dated 2001).
Where a name gives a salt, the structure may show the parent alone.

target: T1, Rat brain protein farnesyltransferase (Rattus norvegicus, UniProt Q02293+Q04631); assay: % inhibition of farnesylation, scintillation proximity assay with biotin-K Ras B fragment; type: biochemical; details: Table 3; 1 × 10^-7 M
T1 construct: Rat brain protein farnesyltransferase activity is measured; from tissue; host or cells: rat brain
Summary of the method: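 Rat brain enzyme, purified through three steps, in a scintillation proximity assay kit with biotin-K Ras B fragment substrate at 0.1 mM final. Value is % inhibition of farnesylation.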

T1 sequence (Q02293 whole entry, the tested form may be a part, one chain of several): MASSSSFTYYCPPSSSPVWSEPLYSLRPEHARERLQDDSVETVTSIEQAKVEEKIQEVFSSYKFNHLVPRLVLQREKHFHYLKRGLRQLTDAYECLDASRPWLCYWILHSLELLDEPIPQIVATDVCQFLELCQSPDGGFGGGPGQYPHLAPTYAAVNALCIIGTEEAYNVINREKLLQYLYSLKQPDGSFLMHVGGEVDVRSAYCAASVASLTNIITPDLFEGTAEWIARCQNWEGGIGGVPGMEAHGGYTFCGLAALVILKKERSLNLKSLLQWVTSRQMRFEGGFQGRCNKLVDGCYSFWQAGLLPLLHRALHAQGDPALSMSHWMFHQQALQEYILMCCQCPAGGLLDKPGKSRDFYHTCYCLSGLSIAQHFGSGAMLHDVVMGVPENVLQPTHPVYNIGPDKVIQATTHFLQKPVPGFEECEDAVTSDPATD

Compound | % inhibition at 1 × 10^-7 M
N-[4-(2-adamantan-1-ylpropoxy)-2-(2-methylphenyl)benzoyl]methionine, lithium salt [Example 563] | 95%

same assay, conditions: Table 6; ** footnote 0.01 μM (title: 0.01 mM)

% inhibition at 0.01 μM (**) | Compound
83% | CCSCC(CC1CCCCC1)NCc1cc(-c2ccccc2C)c(C(=O)N[C@@H](CCSC)C(=O)O)cc1OC (some centres unmarked) [Example 1337]

same assay, conditions: read-out: % inhibition at 0.01 μM (**)

Compound | inhibition at 0.01 µM
CSCC[C@H](NC(=O)c1ccc(CO[C@H](COC(C)C)CC2CCCCC2)cc1-c1ccccc1C)C(=O)O [Example 1306, N-[4-[(S)-3-Cyclohexyl-1-(1-methylethoxy)prop-2-yloxymethyl]-2-(2-methylphenyl)benzoyl]methionine Lithium Salt] | 85%
CCCCOCC(CC1CCCCC1)OCc1ccc(C(=O)N[C@@H](CCSC)C(=O)O)c(-c2ccccc2C)c1 (some centres unmarked) [Example 1308, N-[4-(3-Cyclohexyl-1-butoxyprop-2-yloxymethyl)-2-(2-methylphenyl)benzoyl]methionine Lithium Salt] | 91%
CSCC[C@H](NC(=O)c1ccc(COC(CCC2CCCCC2)c2ccnnc2)cc1-c1ccccc1C)C(=O)O (some centres unmarked) [Example 1349, N-[4-(1-(Pyridazin-4-yl)-3-cyclohexylpropan-1-yloxymethyl)-2-(2-methylphenyl)benzoyl]methionine lithium salt] | 92%

same assay, conditions: read-out: % inhibition at 0.01 μM (**); Table 6; ** footnote 0.01 μM (title: 0.01 mM)

inhibition at 0.01 µM | Compound
91% | CCCC[C@H](CC1CCCCC1)OCc1ccc(C(=O)N[C@@H](CCSC)C(=O)O)c(-c2ccccc2C)c1 [Example 1303, N-[4-(1-Cyclohexyl-2-hexyloxymethyl)-2-(2-methylphenyl)benzoyl]methionine Lithium Salt]
90% | COC[C@H](CC1CCCCC1)OCc1ccc(C(=O)N[C@@H](CCSC)C(=O)O)c(-c2ccccc2C)c1 [Example 1304, N-[4-(3-Cyclohexyl-1-methoxyprop-2-yloxymethyl)-2-(2-methylphenyl)benzoyl]methionine Lithium Salt]
91% | CCCOC[C@H](CC1CCCCC1)OCc1ccc(C(=O)N[C@@H](CCSC)C(=O)O)c(-c2ccccc2C)c1 [Example 1305, N-[4-(3-Cyclohexyl-1-propoxyprop-2-yloxymethyl)-2-(2-methylphenyl)benzoyl]methionine Lithium Salt]
85% | CSCC[C@H](NC(=O)c1ccc(CO[C@H](COC(C)(C)C)CC2CCCCC2)cc1-c1ccccc1C)C(=O)O [Example 1307]
90% | CC[S+]([O-])C[C@H](CC1CCCCC1)OCc1ccc(C(=O)N[C@@H](CCSC)C(=O)O)c(-c2ccccc2C)c1 (some centres unmarked) [Example 1310, Lithium Salt]
95% | CCS(=O)(=O)C[C@H](CC1CCCCC1)OCc1ccc(C(=O)N[C@@H](CCSC)C(=O)O)c(-c2ccccc2C)c1 [Example 1311, N-[4-(3-Cyclohexyl-1-ethylsulfonylprop-2-yloxymethyl)-2-(2-methylphenyl)benzoyl]methionine Lithium Salt]
91% | CCCCSC[C@H](CC1CCCCC1)OCc1ccc(C(=O)N[C@@H](CCSC)C(=O)O)c(-c2ccccc2C)c1 [Example 1312, N-[4-(1-Butylthio-3-cyclohexylprop-2-yloxymethyl)-2-(2-methylphenyl)benzoyl]methionine Lithium Salt]
94% | CSCC[C@H](NC(=O)c1ccc(CO[C@H](COC2CCC2)CC2CCCCC2)cc1-c1ccccc1C)C(=O)O [Example 1345]
81% | CSCC[C@H](NC(=O)c1ccc(CO[C@H](COCC(O)CO)CC2CCCCC2)cc1-c1ccccc1C)C(=O)O (some centres unmarked) [Example 1347, N-[4-(3-Cyclohexyl-1-(2,3-dihydroxy-1-propoxy)-prop-2-yloxymethyl)-2-(2-methylphenyl)benzoyl]methionine, Lithium Salt]
78% | CSCC[C@H](NC(=O)c1ccc(CO[C@@H](CC2CCCCC2)C(=O)N2CCS(=O)(=O)CC2)cc1-c1ccccc1C)C(=O)O [Example 1348, N-[4-(3-cyclohexyl-N-thiomorpholin-S,S-dioxide-4-ylpropion-2-yloxymethyl)-2-(2-methylphenyl)benzoyl]methionine, Lithium Salt]

same assay, conditions: read-out: % inhibition at 0.1 μM (*); Table 6; * footnote 0.1 μM (title: 0.1 mM)

inhibition at 0.1 µM | Compound
96% | CSCC[C@H](NC(=O)c1ccc(CO[C@H](COCCC(C)(C)C)CC2CCCCC2)cc1-c1ccccc1C)C(=O)O [Example 1309, N-[4-(3-Cyclohexyl-1-(3,3-dimethylbut-1-yloxy)prop-2-yloxymethyl)-2-(2-methylphenyl)benzoyl]methionine Lithium Salt]
96% | CSCC[C@H](NC(=O)c1ccc(COC[C@@H](O)CC2CCCCC2)cc1-c1ccccc1C)C(=O)O [Example 1314, N-[4-(3-Cyclohexyl-2-hydroxyprop-1-yloxymethyl)-2-(2-methylphenyl)benzoyl]methionine Lithium Salt]
86% | CCCC[C@@H](COCc1ccc(C(=O)N[C@@H](CCSC)C(=O)O)c(-c2ccccc2C)c1)CC1CCCCC1 [Example 1315, N-[4-(2-Cyclohexylmethylhex-1-yloxymethyl)-2-(2-methylphenyl)benzoyl]methionine Lithium Salt]
78% | COc1ccc(CO[C@H](COCc2ccc(C(=O)N[C@@H](CCSC)C(=O)O)c(-c3ccccc3C)c2)CC2CCCCC2)cc1 [Example 1316, N-[4-(3-Cyclohexyl-2-(4-methoxybenzyloxy)prop-1-yloxymethyl)-2-(2-methylphenyl)benzoyl]methionine Lithium Salt]
94% | CSCC[C@H](NC(=O)c1ccc(CO[C@H](COCC2COC(C)(C)O2)CC2CCCCC2)cc1-c1ccccc1C)C(=O)O (some centres unmarked) [Example 1346, N-[4-(3-Cyclohexyl-1-(2,2-dimethyl-1,3-dioxolan-4-methanoxy)prop-2-yloxymethyl)-2-(2-methylphenyl)benzoyl]methionine, Lithium Salt]
